We go through 11 compounds from paper PMC12344683, “N-alkyl and N-benzyl indoles are anti-SARS-CoV-2 agents and nsp13 inhibitors” (Journal of Enzyme Inhibition and Medicinal Chemistry, 2025).

A short description of data set [1]: Cellular toxicity assay (GFP signal as viability). As to conditions: African green monkey; Vero cells; read-out: CC50, concentration required to reduce Vero cells viability by 50%. Type of data set: cell-based. Here is the method:
Vero E6-green fluorescent protein (GFP) cells (Janssen Pharmaceutical were maintained in Dulbecco’s modified Eagle’s medium (DMEM, Gibco) supplemented with 10% v/v foetal beef serum (FBS, Gibco), 0.075% Sodium Bicarbonate (7.5% solution, Gibco) and 1X Pen-strep (Euroclone) and kept under 5% CO2 on 37 ◦C. The cells were seeded at 10 000 cells/well in 96-well black cell-treated plates (PerkinElmer). The following day, cells were incubated with the control compounds at different concentrations. Compound was dissolved in 0.1% DMSO. Seventy-two hours post infection the GPF signal, as direct index of cellular viability, was quantified by measuring the total-well fluorescence with a Victor 3 multiplate reader (PerkinElmer) set to excitation and emission wavelengths of 485 and 535 nm, respectively.
The percentage of induced cytopathic effects (CPE) was calculated considering the mock as 100% of cell viability, and the readout from empty wells as blank. The compound half-maximal cytopathic concentration (CC50), was determined via non-linear regression by using on Prism 9 v. 9.4.1 software (GraphPad) the built-in function dose-response inhibition, log-concentration-normalized response. Experimental points represent the average and standard deviation of at least two sets of independent triplicates.

In data set [2] the target is T1, SARS-CoV-2 nsp13 (Severe acute respiratory syndrome coronavirus 2, UniProt P0DTD1). Kind of data set: Incubation-dependent potency of 5c on nsp13 (inhibition type). As to conditions: for IC50: read-out: IC50 at time-point. Type of data set: biochemical.
Data set [3] concerns the target T1, SARS-CoV-2 nsp13. As to the kind of experiment: SARS-CoV-2 nsp13 ATPase-associated activity (Biomol Green, BSA-TCEP). It is filed as biochemical. The note with it: for IC50: SARS-CoV-2 nsp13-associated ATPase activity, from dose-response curves.
The target of data set [4] is T1, SARS-CoV-2 nsp13. Kind of data set: SARS-CoV-2 nsp13 unwinding-associated activity (fluorescence, BSA-TCEP). Type of data set: biochemical. As to conditions: for IC50: SARS-CoV-2 nsp13-associated unwinding activity, from dose-response curves.
The next data set deals with SARS-CoV-2. The note with it: cited from earlier work.
In the next data set the test system is HCoV229E. On the set-up: method as in PMID 37562607. As to conditions: cited from earlier work.
A further data set relates to MERS-CoV. The note with it: cited from earlier work.
Data set [5] concerns the target T1, SARS-CoV-2 nsp13. The note with it: cited from earlier work.
Data set [6] addresses T1, SARS-CoV-2 nsp13. As to conditions: SARS-CoV-2 nsp13-associated ATPase activity; cited from earlier work.
For the next data set, the system named is Vero E6-GFP cells. The note with it: cited from earlier work.
Where [7] appears, read: read-out: Activity in enzyme assay IC50 ATPase BSA-TCEP.
Setting [8] is: read-out: Activity in enzyme assay IC50 Unwinding BSA-TCEP.
The mark [9] stands for this setting: SARS-CoV-2 infected cells, read-out: EC50 SARS-CoV-2 replication.
[10] abbreviates: SARS-CoV-2 nsp13-associated unwinding activity, read-out: IC50 unwinding.
[11] abbreviates: read-out: EC50 antiviral activity.

Read-outs that look alike come from different tables or passages of the source.

For the compound `CC(C)c1ccc(Cn2cc(/C=C/C(=O)/C=C(\O)C(=O)O)c3ccccc32)cc1` [5c], the CC50 at 72 h in [1] was more than 100 µM. In addition, the 50% inhibitory concentration (IC50) (usually the point on the concentration scale where inhibition reaches its midpoint) is 0.76 µM at SARS-CoV-2 nsp13 [2] (1 min after activation of the reaction with the substrate); 1.64 µM at SARS-CoV-2 nsp13 [2] (5 min after activation of the reaction with the substrate); 2.75 µM at SARS-CoV-2 nsp13 [2] (10 min after activation of the reaction with the substrate); 2.94 µM on SARS-CoV-2 nsp13 [2] (15 min after activation of the reaction with the substrate); 2.76 µM on SARS-CoV-2 nsp13 [2] (20 min after activation of the reaction with the substrate); 1.8 ± 0.19 µM at SARS-CoV-2 nsp13 [3] (setting [7]). For the same compound, the concentration for half-maximal inhibition (IC50) at SARS-CoV-2 nsp13 [4] (setting [8]) is 4.73 ± 0.5 µM. The “nature of the inhibition” value on SARS-CoV-2 nsp13 [2] (from time-increased IC50 values) is given as “non-covalent/reversible”. For the same compound, the “effect of extended pre-incubation of compound and enzyme on inhibitory potency” value at SARS-CoV-2 nsp13 [2] (pre-incubation extended to +20 min and +50 min at RT) is listed as “did not lead to an increase of the inhibitory potency”. The “higher ATPase inhibition in respect to 4” value on SARS-CoV-2 nsp13 [3] (ratio of IC50 values) is 7 fold.

`CCOC(=O)/C(O)=C/C(=O)c1cn(Cc2ccc(F)cc2)c2ccccc12` [8d, Ethyl (Z)-4-(1-(4-fluorobenzyl)-1H-indol-3-yl)-2-hydroxy-4-oxobut-2-enoate]: the CC50 at 72 h in [1] was more than 100 µM. Moreover, the 50% inhibitory concentration (IC50) was determined as 8.7 ± 0.53 µM against SARS-CoV-2 nsp13 [3] (Activity in enzyme assay IC50 ATPase BSA-TCEP) and 1.73 ± 0.53 µM at SARS-CoV-2 nsp13 [4] (Activity in enzyme assay IC50 Unwinding BSA-TCEP).

On to `CC(C)=CCn1cc(/C=C/C(=O)/C=C(\O)C(=O)O)c2ccccc21` [compound 3], for which the EC50 (in general, the concentration at which the effect is half-maximal) with SARS-CoV-2 (setting [9]) was 4.54 µM; in the data set with HCoV229E it was 0.54 µM; in the data set with MERS-CoV, 0.33 µM. For the same compound, the 50% inhibitory concentration (IC50) on SARS-CoV-2 nsp13 [5] (setting [10]) is 9.51 µM; on SARS-CoV-2 nsp13 [6], 26.8 µM. In the data set with Vero E6-GFP cells, the CC50 was more than 264 µM.

In the case of `O=C(/C=C(\O)C(=O)O)/C=C/c1cn(Cc2ccc(OC(F)(F)F)cc2)c2ccccc12` [5e], the CC50 at 72 h in data set [1] was more than 100 µM. In addition, the values for the IC50 on SARS-CoV-2 nsp13 [3] (setting [7]) and at SARS-CoV-2 nsp13 [4] (setting [8]) were 6.41 ± 0.05 µM and 6.24 ± 0.24 µM, respectively.

Regarding `CC(C)=Cn1cc(/C=C/C(=O)/C=C(\O)C(=O)O)c2ccccc21` [9c, (2Z,5E)-2-hydroxy-6-(1-(2-methylprop-1-en-1-yl)-1H-indol-3-yl)-4-oxohexa-2,5-dienoic acid], in data set [1], the CC50 at 72 h is more than 100 µM. For the same compound, the half-maximal inhibitory concentration (IC50) at SARS-CoV-2 nsp13 [3] (setting [7]) was more than 30 µM; on SARS-CoV-2 nsp13 [4] (setting [8]), 1.56 ± 0.16 µM. Besides, the remaining activity at 30 µM at SARS-CoV-2 nsp13 [3] (measured at 30 µM, read-out: Percentage of enzymatic residual activity (ATPase)) worked out at 98.6%.

For `CC(C)=CCc1c(O)cc(O)c2c(=O)cc(-c3ccc(O)cc3)oc12` [compound 2, licoflavone C], the EC50 in the data set with SARS-CoV-2 (setting [11]) is more than 100 µM.

For `N#Cc1ccc(Cn2cc(/C=C/C(=O)/C=C(\O)C(=O)O)c3ccccc32)cc1` [5g, (2Z,5E)-6-(1-(4-cyanobenzyl)-1H-indol-3-yl)-2-hydroxy-4-oxohexa-2,5-dienoic acid], in data set [1], the CC50 at 72 h was more than 100 µM. Also, the IC50 stood at 1.91 ± 0.31 µM at SARS-CoV-2 nsp13 [3] (setting [7]) and 2.08 ± 0.04 µM on SARS-CoV-2 nsp13 [4] (setting [8]).

On to `O=C(/C=C(\O)C(=O)O)/C=C/c1cn(Cc2ccccc2)c2ccccc12` [compound 4], for which the values for the concentration giving a half-maximal response (EC50) with SARS-CoV-2 (setting [9]), in the data set with HCoV229E and with MERS-CoV were 1.03 ± 0.24 µM, 1.83 µM and 6.32 µM, respectively. Besides, the 50% inhibitory concentration (IC50) on SARS-CoV-2 nsp13 [5] (setting [10]) was 12.7 ± 4.9 µM; at SARS-CoV-2 nsp13 [6] it was 12.8 ± 1.3 µM. In addition, the CC50 with Vero E6-GFP cells is more than 264 µM.

Regarding `CCOC(=O)/C(O)=C/C(=O)/C=C/c1cn(Cc2ccc(OC(F)(F)F)cc2)c2ccccc12` [6e], the CC50 at 72 h in data set [1] is more than 100 µM. In addition, the IC50 is 2.17 ± 0.26 µM at SARS-CoV-2 nsp13 [3] (setting [7]) and 5.66 ± 0.21 µM on SARS-CoV-2 nsp13 [4] (setting [8]).

Take `O=C(/C=C(\O)C(=O)O)/C=C/c1cn(Cc2ccc(F)cc2)c2ccc(Cl)cc12` [5i, (2Z,5E)-6-(5-chloro-1-(4-fluorobenzyl)-1H-indol-3-yl)-2-hydroxy-4-oxohexa-2,5-dienoic acid]: the CC50 at 72 h in data set [1] is more than 100 µM. In addition, the 50% inhibitory concentration (IC50) at SARS-CoV-2 nsp13 [3] (setting [7]) was found to be 26.3 ± 2.52 µM; on SARS-CoV-2 nsp13 [4] (setting [8]), 0.47 ± 0.01 µM. For the same compound, on SARS-CoV-2 nsp13 [4] (IC50 unwinding vs IC50 ATPase), the “selectivity for unwinding over ATPase” value is given as 2 order of magnitude. The “gain in activity on unwinding with respect to the hit 4” value on SARS-CoV-2 nsp13 [4] (ratio of IC50 values) came to 27 fold.

Consider `C=CCn1c(CSc2ccccc2[N+](=O)[O-])n[nH]c1=S` [SSYA10-001], for which the concentration giving a half-maximal response (EC50) in the data set on SARS-CoV-2 (setting [11]) is 81 µM. At SARS-CoV-2 nsp13 [5] (SARS-CoV-2 nsp13, read-out: IC50 vs unwinding), the 50% inhibitory concentration (IC50) is 7.5 µM.
